According to article PMC6696147, “Broad-Spectrum Antiviral Natural Products from the Marine-Derived Penicillium sp. IMB17-046” (Molecules, 2019):
In brackets after ≈: the same amount, converted by molar mass. Like-named read-outs stand apart in the source and are kept apart here.

Key:
Staphylococcus aureus = assay: Antibacterial assay, broth micro-dilution MIC, S. aureus; type: cell-based; conditions: read-out: MIC against Staphylococcus aureus
Method: (§1) The antibacterial activities against H. pylori, S. aureus, B. subtilis, P. aeruginosa, and K. pneumonia were assayed by examining the MIC using the broth micro-dilution method as previously described.

Pseudomonas aeruginosa = assay: Antibacterial assay, broth micro-dilution MIC, P. aeruginosa; type: cell-based; conditions: read-out: MIC against Pseudomonas aeruginosa
Method: as §1

Helicobacter pylori = assay: Antibacterial assay, broth micro-dilution MIC, H. pylori; type: cell-based; conditions: for MIC: Helicobacter pylori; for H. pylori MIC, range over strains: clinically isolated H. pylori, strains G27 and 159 together
Method: as §1

Klebsiella pneumoniae = assay: Antibacterial assay, broth micro-dilution MIC, K. pneumoniae; type: cell-based; conditions: read-out: MIC against Klebsiella pneumoniae
Method: as §1

HIV-1 = assay: microbe, parasite or virus in culture; type: cell-based; conditions: Human immunodeficiency virus 1, SUP-T1, 48 h, read-out: HIV-1 IC50
in vitro [1] = conditions: human
Bacillus subtilis = assay: Antibacterial assay, broth micro-dilution MIC, B. subtilis; type: cell-based; conditions: read-out: MIC against Bacillus subtilis
Method: as §1

HCV = assay: Anti-HCV assay; type: cell-based; conditions: Hepatitis C virus
Method: Anti-HCV assays were carried out as described previously.

[2] = Cytotoxicity assay (MTT), uninfected Huh7.5 cells; type: cell-based; conditions: human, read-out: HCV CC50
Method: Cytotoxicity of compounds were assayed for the uninfected 293T-Gluc, SupT1, and Huh7.5 cells. 293T-Gluc and Huh7.5 cells were cultured in Dulbecco’s modified Eagle’s medium supplemented with 10% fetal bovine serum (FBS, Invitrogen). SupT1 cells were cultured in RPMI1640 medium supplemented with 10% FBS. Various concentrations of test compounds (1 μL each well) were added to the 293T-Gluc and SupT1 cells (1 × 10^5 cells/well) in 96-well plates. After incubation at 37 °C for 48 h, 10 μL of CCK-8 reagent was added to the cells and they were incubated for another 4 h. Then, the absorbance of each well was recorded at 450 nm. A cytotoxicity assay for Huh7.5 cells was carried out using the MTT method as described previously.

in vitro [3] = conditions: human; remark: listed apart in the source
[4] = tested on: wild-type and multi-drug resistant HIV-1; parameters: method as in doi:10.1007/s11426-018-9283-3; conditions: cited from earlier work
[5] = drug-resistant strain 159, read-out: H. pylori MIC, 159
[6] = drug-sensitive strain G27, read-out: H. pylori MIC, G27

COc1cc(=O)oc(C=CC=CC=CC(C)=CC2(C)OC(C)C(C)(O)C2O)c1C (single isomer, unassigned; (+)) [Compound 2, (+)-neocitreoviridin]
MIC (Staphylococcus aureus): > 128 µg/mL | MIC (Pseudomonas aeruginosa): > 128 µg/mL | MIC (Helicobacter pylori; [5]): 1 µg/mL (≈ 2.48 µM) | MIC (Helicobacter pylori; [6]): 4 µg/mL (≈ 9.94 µM) | H. pylori MIC, range over strains (Helicobacter pylori): 1 to 16 µg/mL | MIC (Klebsiella pneumoniae): > 128 µg/mL | IC50 (HIV-1): > 10 µM | CC50 (in vitro [1]): > 100 µM | MIC (Bacillus subtilis): > 128 µg/mL

CC[C@H](C)c1nc(OC)c(Cc2c[nH]c3ccccc23)nc1O [Compound 1, (S)-6-((1H-indol-3-yl)methyl)-3-(sec-butyl)-5-methoxypyrazin-2-ol]
MIC (Staphylococcus aureus): > 128 µg/mL | MIC (Pseudomonas aeruginosa): > 128 µg/mL | MIC (Helicobacter pylori; [5]): 16 µg/mL (≈ 51.4 µM) | MIC (Helicobacter pylori; [6]): 4 µg/mL (≈ 12.8 µM) | H. pylori MIC, range over strains (Helicobacter pylori): 1 to 16 µg/mL | MIC (Klebsiella pneumoniae): > 128 µg/mL | IC50 (HIV-1): 4.6 ± 0.3 µM | IC50 (HCV): 7.7 ± 0.2 µM | CC50 [2]: 116 ± 4.9 µM | MIC (Bacillus subtilis): > 128 µg/mL

C=C(CC[C@@H](C)[C@H]1CC=C2C3=C(CC[C@@]21C)[C@@]1(C)CC[C@H](O)CC1CC3=O)C(C)C (stereo partly drawn) [Compound 3, 3β-hydroxyergosta-8,14,24(28)-trien-7-one]
IC50 (HIV-1): 3.5 ± 0.8 µM

C=C(CC[C@@H](C)[C@H]1CC[C@H]2C3=C(CC[C@]12C)[C@@]1(C)CC[C@H](O)CC1CC3=O)C(C)C (stereo partly drawn) [Compound 7, 3β-hydroxyergosta-8,24(28)-dien-7-one]
IC50 (HIV-1): > 10 µM | CC50 (in vitro [1]): > 100 µM

CC(C)[C@@H](C)/C=C/[C@@H](C)[C@H]1CC[C@H]2C3=C[C@@H](O)[C@@]4(O)C[C@@H](O)CC[C@]4(C)[C@H]3CC[C@]12C [Compound 8, (22E,24R)-24-methyl-5α-cholesta-7,22-dien-3β,5,6β-triol]
IC50 (HIV-1): 6.2 ± 0.2 µM

O=C1Nc2ccc(Cl)cc2[C@@](C#CC2CC2)(C(F)(F)F)O1 [Efavirenz, reference compound]
CC50 (in vitro [1]): > 100 µM

Cc1ncc([N+](=O)[O-])n1CCO [Metronidazole, reference compound]
MIC (Helicobacter pylori; [5]): 16 µg/mL (≈ 93.5 µM) | MIC (Helicobacter pylori; [6]): 1 µg/mL (≈ 5.84 µM)

NC(=O)c1ncn([C@@H]2O[C@H](CO)[C@@H](O)[C@H]2O)n1 [Ribavirin, reference compound]
CC50 (in vitro [3]): > 100 µM

CCC[C@H](NC(=O)[C@@H]1[C@H]2CCC[C@H]2CN1C(=O)[C@@H](NC(=O)[C@@H](NC(=O)c1cnccn1)C1CCCCC1)C(C)(C)C)C(=O)C(=O)NC1CC1 [VX-950, reference compound]
IC50 (HCV): 0.05 ± 0.03 µM | CC50 [2]: 25.8 ± 3.4 µM

CC(C)[C@H](C)CC[C@](C)(O)[C@H]1C(=O)C[C@H]2[C@@H]3C(=O)C=C4C[C@@H](O)CC[C@]4(C)[C@H]3CC[C@@]21C [amotsterol D, (20S,24R)-3β,20-dihydroxyergostan-5(6)-en-7,16-dione]
effectiveness against HIV-1 [4]: low micromolar range
